Measurements taken from patent publication US20260151347A1, “CELL-DERIVED MICROPARTICLE DELIVERY SYSTEM AND USES THEREOF” (priority 2021, published 2026).

Test system: 4T1-luc2 cells
Experiment: In vitro validation of released drug efficacy
Type: cell-based
Conditions: after 4 hours, free drug dose equals cumulative cisplatin release at 4 hours
Source text: Additional controls include unloaded MPs and untreated cells. […] As shown in these experiments, the local release of high levels of payload may result in a stark increase in efficiency for the treatment of diseased cells.

N.N.[Cl][Pt][Cl] [Cisplatin]
cell death as compared to control: little to no cell death
